Laboratory results reported in the NIST ThermoML archive (doi:10.1021/je100095p).
± gives the expanded uncertainty stated by the source.

Experiments:
[1] = excess molar enthalpy (molar enthalpy of mixing); xn = mol fraction of the nth substance listed; conditions: 298.15 K, 101 kPa, Liquid, Calvet calorimetry
[2] = 298.15 K; 101.33 kPa; Liquid; Vibrating tube method
[3] = refractive index (Na D-line) (dimensionless); conditions: 298.15 K; 101.33 kPa; Liquid; Standard Abbe refractometry

OCc1ccccc1 [benzenemethanol] + CO
excess molar enthalpy ([1]; x1 = 0.07): -0.00363 ± 0.000215 kcal/mol
excess molar enthalpy ([1]; x1 = 0.1388): -0.00798 ± 0.000287 kcal/mol
excess molar enthalpy ([1]; x1 = 0.2057): -0.0136 ± 0.000382 kcal/mol
excess molar enthalpy ([1]; x1 = 0.2728): -0.0189 ± 0.000478 kcal/mol
excess molar enthalpy ([1]; x1 = 0.3404): -0.024 ± 0.000598 kcal/mol
excess molar enthalpy ([1]; x1 = 0.3992): -0.0286 ± 0.000693 kcal/mol
excess molar enthalpy ([1]; x1 = 0.4995): -0.0337 ± 0.000789 kcal/mol
excess molar enthalpy ([1]; x1 = 0.5964): -0.0345 ± 0.000813 kcal/mol
excess molar enthalpy ([1]; x1 = 0.6972): -0.0325 ± 0.000765 kcal/mol
excess molar enthalpy ([1]; x1 = 0.7998): -0.0258 ± 0.000621 kcal/mol
excess molar enthalpy ([1]; x1 = 0.9028): -0.0147 ± 0.000406 kcal/mol

OCc1ccccc1 [benzenemethanol]
mass density [2]: 1041.99 ± 0.26 kg/m3
refractive index [3]: 1.5381 ± 0.0005

OCc1ccccc1 [benzenemethanol] + CCCCCCO
excess molar enthalpy ([1]; x1 = 0.0954): 0.025 ± 0.000621 kcal/mol
excess molar enthalpy ([1]; x1 = 0.1959): 0.0473 ± 0.00108 kcal/mol
excess molar enthalpy ([1]; x1 = 0.291): 0.0647 ± 0.00143 kcal/mol
excess molar enthalpy ([1]; x1 = 0.3901): 0.0775 ± 0.0017 kcal/mol
excess molar enthalpy ([1]; x1 = 0.5072): 0.0822 ± 0.00182 kcal/mol
excess molar enthalpy ([1]; x1 = 0.598): 0.0818 ± 0.00179 kcal/mol
excess molar enthalpy ([1]; x1 = 0.6996): 0.074 ± 0.00163 kcal/mol
excess molar enthalpy ([1]; x1 = 0.8022): 0.0576 ± 0.00129 kcal/mol
excess molar enthalpy ([1]; x1 = 0.8986): 0.0348 ± 0.000813 kcal/mol

OCc1ccccc1 [benzenemethanol] + CCCO
excess molar enthalpy ([1]; x1 = 0.0984): 0.0116 ± 0.000335 kcal/mol
excess molar enthalpy ([1]; x1 = 0.1964): 0.0202 ± 0.000502 kcal/mol
excess molar enthalpy ([1]; x1 = 0.2873): 0.0255 ± 0.000621 kcal/mol
excess molar enthalpy ([1]; x1 = 0.3999): 0.0295 ± 0.000693 kcal/mol
excess molar enthalpy ([1]; x1 = 0.4987): 0.0284 ± 0.000669 kcal/mol
excess molar enthalpy ([1]; x1 = 0.5993): 0.0256 ± 0.000621 kcal/mol
excess molar enthalpy ([1]; x1 = 0.6983): 0.0207 ± 0.000526 kcal/mol
excess molar enthalpy ([1]; x1 = 0.7996): 0.0147 ± 0.000406 kcal/mol
excess molar enthalpy ([1]; x1 = 0.8988): 0.00772 ± 0.000263 kcal/mol

CCCO [propan-1-ol]
mass density [2]: 799.51 ± 0.12 kg/m3
refractive index [3]: 1.3833 ± 0.0005

OCc1ccccc1 [benzenemethanol] + CCCCO
excess molar enthalpy ([1]; x1 = 0.0976): 0.0203 ± 0.000526 kcal/mol
excess molar enthalpy ([1]; x1 = 0.1973): 0.0356 ± 0.000837 kcal/mol
excess molar enthalpy ([1]; x1 = 0.295): 0.0469 ± 0.00105 kcal/mol
excess molar enthalpy ([1]; x1 = 0.396): 0.0528 ± 0.0012 kcal/mol
excess molar enthalpy ([1]; x1 = 0.4931): 0.0552 ± 0.00124 kcal/mol
excess molar enthalpy ([1]; x1 = 0.6029): 0.0507 ± 0.00115 kcal/mol
excess molar enthalpy ([1]; x1 = 0.7039): 0.0428 ± 0.00098 kcal/mol
excess molar enthalpy ([1]; x1 = 0.8026): 0.0317 ± 0.000741 kcal/mol
excess molar enthalpy ([1]; x1 = 0.9017): 0.0174 ± 0.000454 kcal/mol

CCCCO [butan-1-ol]
mass density [2]: 805.75 ± 0.12 kg/m3
refractive index [3]: 1.3974 ± 0.0005

CCCCCCO [hexan-1-ol]
mass density [2]: 815.2 ± 0.64 kg/m3
refractive index [3]: 1.4165 ± 0.0006

OCc1ccccc1 [benzenemethanol] + CCCCCO
excess molar enthalpy ([1]; x1 = 0.1044): 0.0229 ± 0.000574 kcal/mol
excess molar enthalpy ([1]; x1 = 0.1968): 0.0403 ± 0.000932 kcal/mol
excess molar enthalpy ([1]; x1 = 0.2902): 0.054 ± 0.00122 kcal/mol
excess molar enthalpy ([1]; x1 = 0.3864): 0.0635 ± 0.00141 kcal/mol
excess molar enthalpy ([1]; x1 = 0.4838): 0.0681 ± 0.00151 kcal/mol
excess molar enthalpy ([1]; x1 = 0.5999): 0.0648 ± 0.00143 kcal/mol
excess molar enthalpy ([1]; x1 = 0.6988): 0.0576 ± 0.00129 kcal/mol
excess molar enthalpy ([1]; x1 = 0.7995): 0.0444 ± 0.001 kcal/mol
excess molar enthalpy ([1]; x1 = 0.8992): 0.0253 ± 0.000621 kcal/mol

CO [methanol]
mass density [2]: 786.5 ± 0.15 kg/m3
refractive index [3]: 1.3266 ± 0.0005

OCc1ccccc1 [benzenemethanol] + CCO
excess molar enthalpy ([1]; x1 = 0.0746): 0.0175 ± 0.000454 kcal/mol
excess molar enthalpy ([1]; x1 = 0.1514): 0.0312 ± 0.000741 kcal/mol
excess molar enthalpy ([1]; x1 = 0.2275): 0.041 ± 0.000932 kcal/mol
excess molar enthalpy ([1]; x1 = 0.3029): 0.0474 ± 0.00108 kcal/mol
excess molar enthalpy ([1]; x1 = 0.3785): 0.0512 ± 0.00115 kcal/mol
excess molar enthalpy ([1]; x1 = 0.4855): 0.0533 ± 0.0012 kcal/mol
excess molar enthalpy ([1]; x1 = 0.5857): 0.0497 ± 0.00112 kcal/mol
excess molar enthalpy ([1]; x1 = 0.6883): 0.0422 ± 0.000956 kcal/mol
excess molar enthalpy ([1]; x1 = 0.7915): 0.0309 ± 0.000741 kcal/mol
excess molar enthalpy ([1]; x1 = 0.8949): 0.0171 ± 0.000454 kcal/mol

CCO [ethanol]
mass density [2]: 785.15 ± 0.12 kg/m3
refractive index [3]: 1.3595 ± 0.0005

CCCCCO [pentan-1-ol]
mass density [2]: 810.88 ± 0.24 kg/m3
refractive index [3]: 1.4088 ± 0.0005
